Source: ChEMBL document CHEMBL1201862, “PubChem BioAssay data set” (2004)
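The compound was tested at five concentrations on cells cultured in 96-well plates, with a 48-hour exposure period. GI50: concentration for 50% inhibition of growth.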 Calls of active or inactive are those of the source. Cut-off read from the data, not from the text of the source: active = GI50 up to about 1.1 µM and inactive = higher.

Experiments:
Assay in all cases: DTP human tumour cell line panel, 48 h
786-0 = system: 786-0
ACHN = system: ACHN
COLO 205 = system: COLO 205
DU-145 = system: DU-145
HCT-116 = system: HCT-116
HCT-15 = system: HCT-15
HOP-62 = system: HOP-62
HT-29 = system: HT-29
MDA-N = system: MDA-N
NCI-H23 = system: NCI-H23
NCI-H522 = system: NCI-H522
NCI/ADR-RES = system: NCI/ADR-RES
PC-3 = system: PC-3
RPMI-8226 = system: RPMI-8226
SF-295 = system: SF-295
SK-MEL-28 = system: SK-MEL-28
SK-MEL-2 = system: SK-MEL-2
SW-620 = system: SW-620
OVCAR-3 = system: OVCAR-3
OVCAR-4 = system: OVCAR-4

Compound	GI50 (786-0)	GI50 (ACHN)	GI50 (COLO 205)	GI50 (DU-145)	GI50 (HCT-116)	GI50 (HCT-15) [µM]	GI50 (HOP-62)	GI50 (HT-29)	GI50 (MDA-N)	GI50 (NCI-H23)	GI50 (NCI-H522)	GI50 (NCI/ADR-RES)	GI50 (PC-3)	GI50 (RPMI-8226)	GI50 (SF-295)	GI50 (SK-MEL-28)	GI50 (SK-MEL-2)	GI50 (SW-620)	GI50 (OVCAR-3)	GI50 (OVCAR-4)
COc1cc(OC)c(OC)cc1/C=C1\C=Cc2ccccc21	28.1 µM (inactive)	27.1 µM (inactive)	7.96 µM (inactive)	28.8 µM (inactive)	5.65 µM (inactive)	12.4	15.9 µM (inactive)	11.7 µM (inactive)	9.18 µM (inactive)	18.8 µM (inactive)	12.1 µM (inactive)	17.4 µM (inactive)	5.52 µM (inactive)	10.8 µM (inactive)	18.5 µM (inactive)	15.7 µM (inactive)	> 10 µM (inactive)	11.1 µM (inactive)		
COP(=O)(C(/C=C/c1ccccc1)OC(C)=O)[C@@H]1CCCC[C@H]1N(CC(C)(C)C)C(C)=O (stereo partly specified)	17.3 µM (inactive)	16.3 µM (inactive)	13.9 µM (inactive)	15 µM (inactive)	10.9 µM (inactive)	15.9	18.2 µM (inactive)	10.2 µM (inactive)	15.6 µM (inactive)	15.8 µM (inactive)	12.1 µM (inactive)	15.1 µM (inactive)	14 µM (inactive)		16.3 µM (inactive)	20.4 µM (inactive)	15.4 µM (inactive)	16.7 µM (inactive)	14.5 µM (inactive)	5.62 µM (inactive)
COCn1c(C)c(C)c2c(=O)oc(=O)[nH]c21	> 100 µM (inactive)	> 100 µM (inactive)	> 100 µM (inactive)	> 100 µM (inactive)	> 100 µM (inactive)	> 100	> 100 µM (inactive)	> 100 µM (inactive)	> 100 µM (inactive)	> 100 µM (inactive)	> 100 µM (inactive)	> 100 µM (inactive)	> 100 µM (inactive)	> 100 µM (inactive)	> 100 µM (inactive)	> 100 µM (inactive)	> 100 µM (inactive)	> 100 µM (inactive)		> 100 µM (inactive)
O=c1[nH]nc(Cn2c3ccc(Br)cc3c3nc4ccccc4nc32)n1C1CCCCC1	25.2 µM (inactive)	> 100 µM (inactive)	3.9 µM (inactive)	32 µM (inactive)	70.1 µM (inactive)	> 100	17.7 µM (inactive)	36.1 µM (inactive)	75.3 µM (inactive)	12.9 µM (inactive)		> 100 µM (inactive)	16.2 µM (inactive)	21.3 µM (inactive)	32.7 µM (inactive)	19.3 µM (inactive)	60.7 µM (inactive)	52.7 µM (inactive)	23.3 µM (inactive)	18.6 µM (inactive)
NC(=O)NNCc1ccccc1	> 100 µM (inactive)	> 100 µM (inactive)	> 100 µM (inactive)	> 100 µM (inactive)	> 100 µM (inactive)	> 100	> 100 µM (inactive)	> 100 µM (inactive)	> 100 µM (inactive)	> 100 µM (inactive)	> 100 µM (inactive)	> 100 µM (inactive)	> 100 µM (inactive)	> 100 µM (inactive)	> 100 µM (inactive)		> 100 µM (inactive)	> 100 µM (inactive)	> 100 µM (inactive)	> 100 µM (inactive)
CCOC(=O)NN(C(=O)OCC)C(=C(C1=CCCCC1)N1CCOCC1)N(NC(=O)OCC)C(=O)OCC	> 100 µM (inactive)	> 100 µM (inactive)	> 100 µM (inactive)	> 100 µM (inactive)		> 100	> 100 µM (inactive)	> 100 µM (inactive)	> 100 µM (inactive)	> 100 µM (inactive)		> 100 µM (inactive)	> 100 µM (inactive)	> 100 µM (inactive)	> 100 µM (inactive)	> 100 µM (inactive)		> 100 µM (inactive)	> 100 µM (inactive)	
O=C(c1ccco1)C1CC(c2ccc3ccccc3c2O)=NN1c1ccc([N+](=O)[O-])cc1[N+](=O)[O-] (stereo unspecified)	31 µM (inactive)	20.5 µM (inactive)	16.3 µM (inactive)	37.6 µM (inactive)	23.1 µM (inactive)	17.9	33.3 µM (inactive)	13.7 µM (inactive)	28.6 µM (inactive)	22.7 µM (inactive)	7.98 µM (inactive)	21.1 µM (inactive)	16.4 µM (inactive)		18.1 µM (inactive)	40.6 µM (inactive)	24.5 µM (inactive)	34.5 µM (inactive)	28.1 µM (inactive)	15.6 µM (inactive)
CC(C#N)N(CCc1ccccc1)C(=O)c1ccccc1 (stereo unspecified)	> 100 µM (inactive)	> 100 µM (inactive)	> 100 µM (inactive)	> 100 µM (inactive)	> 100 µM (inactive)	> 100	> 100 µM (inactive)	> 100 µM (inactive)	> 100 µM (inactive)	> 100 µM (inactive)	> 100 µM (inactive)	> 100 µM (inactive)	> 100 µM (inactive)	> 100 µM (inactive)	> 100 µM (inactive)		> 100 µM (inactive)	> 100 µM (inactive)	> 100 µM (inactive)	> 100 µM (inactive)
COC(=O)Cc1c([C@@H]2Nc3ccccc3[C@H]2CC(=O)OC)[nH]c2ccccc12	58.2 µM (inactive)	36.6 µM (inactive)	16 µM (inactive)	59.4 µM (inactive)	38.9 µM (inactive)	5.02	26.9 µM (inactive)	48.5 µM (inactive)	28.7 µM (inactive)	27 µM (inactive)		26.9 µM (inactive)	11.1 µM (inactive)	14.9 µM (inactive)	22.8 µM (inactive)	28.3 µM (inactive)	17.7 µM (inactive)	46.8 µM (inactive)	18.3 µM (inactive)	23 µM (inactive)
CCCSc1cc(Cl)c(C)cc1S(=O)(=O)n1ccnc1O	> 100 µM (inactive)	> 100 µM (inactive)	> 100 µM (inactive)	> 100 µM (inactive)	> 100 µM (inactive)	> 100	> 100 µM (inactive)	> 100 µM (inactive)	> 100 µM (inactive)	> 100 µM (inactive)	> 100 µM (inactive)	> 100 µM (inactive)	> 100 µM (inactive)		> 100 µM (inactive)	> 100 µM (inactive)	> 100 µM (inactive)	> 100 µM (inactive)	> 100 µM (inactive)	> 100 µM (inactive)
NC(=S)N/N=C1/CCCC2CCCC[C@@H]12 (stereo partly specified)	> 100 µM (inactive)	> 100 µM (inactive)	> 100 µM (inactive)	> 100 µM (inactive)		> 100	> 100 µM (inactive)	> 100 µM (inactive)	> 100 µM (inactive)	> 100 µM (inactive)	80.4 µM (inactive)	> 100 µM (inactive)	> 100 µM (inactive)	> 100 µM (inactive)	> 100 µM (inactive)	> 100 µM (inactive)	> 100 µM (inactive)	> 100 µM (inactive)	> 100 µM (inactive)	> 100 µM (inactive)
Oc1ccc(Cl)cc1C1=NC(NCNC2=NC(c3ccccc3)CC(c3cc(Cl)ccc3O)=N2)=NC(c2ccccc2)C1 (stereo unspecified)	> 100 µM (inactive)	43.6 µM (inactive)	> 100 µM (inactive)	44.2 µM (inactive)	56 µM (inactive)	43.4	> 100 µM (inactive)	70.8 µM (inactive)	79.1 µM (inactive)	> 100 µM (inactive)		82.4 µM (inactive)	> 100 µM (inactive)	63.4 µM (inactive)	79.1 µM (inactive)	> 100 µM (inactive)	> 100 µM (inactive)	> 100 µM (inactive)	60.1 µM (inactive)	64.1 µM (inactive)
CCOC1CC(=O)c2c(Br)sc(Br)c21 (stereo unspecified)	30.7 µM (inactive)	19.7 µM (inactive)	19.7 µM (inactive)	18 µM (inactive)	21.2 µM (inactive)	18	18.5 µM (inactive)	21.3 µM (inactive)	22.3 µM (inactive)	17.9 µM (inactive)	28.5 µM (inactive)	37.6 µM (inactive)	20.8 µM (inactive)	17.9 µM (inactive)	27.9 µM (inactive)	19.6 µM (inactive)	17.5 µM (inactive)	20 µM (inactive)	14.6 µM (inactive)	
C=C(C)CC1(O)C(=O)C(OCC)=C1OCC (stereo unspecified)	> 100 µM (inactive)	> 100 µM (inactive)	> 100 µM (inactive)	> 100 µM (inactive)	> 100 µM (inactive)	> 100	> 100 µM (inactive)	> 100 µM (inactive)	> 100 µM (inactive)	> 100 µM (inactive)	> 100 µM (inactive)	> 100 µM (inactive)	> 100 µM (inactive)		> 100 µM (inactive)	> 100 µM (inactive)	> 100 µM (inactive)	> 100 µM (inactive)	> 100 µM (inactive)	> 100 µM (inactive)
Nc1ccnc2c1ncn2[C@H]1C[C@H](O)[C@@H](CO)O1	> 100 µM (inactive)	> 100 µM (inactive)	> 100 µM (inactive)	> 100 µM (inactive)	> 100 µM (inactive)	> 100	> 100 µM (inactive)	> 100 µM (inactive)	> 100 µM (inactive)	> 100 µM (inactive)	> 100 µM (inactive)	> 100 µM (inactive)	> 100 µM (inactive)		> 100 µM (inactive)	> 100 µM (inactive)	> 100 µM (inactive)	> 100 µM (inactive)	> 100 µM (inactive)	> 100 µM (inactive)
